Values quoted from earlier work, collected in patent US20130143937A1, “CHLORTHALIDONE COMBINATIONS” (Boehringer Ingelheim International GmbH, priority 2003, published 2013).

Details: in vivo

Structure (SMILES) | mean plasma half-life
NS(=O)(=O)c1cc(C2(O)NC(=O)c3ccccc32)ccc1Cl (centres unmarked) [chlorthalidone, 2-chloro-5-(2,3-dihydro-1-hydroxy-3-oxo-1h-isoindol-1-yl)benzene-sulfonamide] | 40 to 60 h
NS(=O)(=O)c1cc2c(cc1Cl)NCNS2(=O)=O [hydrochlorothiazide] | about 24 hours
